Assay results from ChEMBL document CHEMBL3853272, “Polymerase Acidic Protein-Basic Protein 1 (PA-PB1) Protein-Protein Interaction as a Target for Next-Generation Anti-influenza Therapeutics” (J Med Chem, 2016).
pEC50, pIC50, pKd: −log10 of the molar value.

Tests used:
[1] = molecular target: Polymerase acidic protein (Influenza A virus (A/Puerto Rico/8/1934(H1N1)), UniProt P03433); assay: Binding affinity to PA cavity of recombinant Influenza A virus A/PR/8/34(H1N1) PA (239 to 716 residues) measured after 2 mins by SPR analysis
[2] = Antiviral activity against Influenza A virus A/PR/8/34 (H1N1) infected in MDCK cells assessed as reduction in plaque formation after 2 days by plaque reduction assay; assay type: functional, cell-based, Influenza A virus (A/Puerto Rico/8/1934(H1N1)); details: 48 h
[3] = test system: HEK-293T; assay: (§1) Inhibition of Influenza A virus A/PR/8/34 RNA-dependent-RNA polymerase transfected in HEK293T cells assessed as reduction in viral growth after 24 hrs by minireplicon assay; assay type: cell-based; details: Influenza A virus (A/Puerto Rico/8/1934(H1N1))
[4] = as §1; assay type: cell-based, Influenza A virus (A/Puerto Rico/8/1934(H1N1)); details: hek-293t
[5] = Cytotoxicity against MDCK cells measured after 24 to 120 hrs by MTT assay; assay type: toxicity, cell-based, Canis lupus familiaris; details: dog
[6] = (§2) Inhibition of Influenza A virus A/PR/8/34(H1N1) 6His-tagged PA (239 to 716 residues)/GST-tagged PB1 (1 to 15 residues) fused with HIV-Tat interaction by ELISA; parameters: species or system Influenza A virus (A/Puerto Rico/8/1934(H1N1))
[7] = test system: Influenza A virus (A/Puerto Rico/8/1934(H1N1)); assay: as §2
[8] = molecular target: Polymerase acidic protein /RNA-directed RNA polymerase catalytic subunit (Influenza A virus (strain A/Wilson-Smith/1933 H1N1), UniProt P03430+P15659); assay: Inhibition of Influenza A virus A/WSN/1933(H1N1) HA-tagged PA/PB1 interaction in HEK293T cells assessed as inhibition of viral growth by competitive ELISA; assay type: cell-based, HEK-293T
[9] = Inhibition of Influenza B virus HA-tagged PA/PB1 interaction in HEK293T cells assessed as inhibition of viral growth by competitive ELISA; assay type: cell-based; details: hek-293t
[10] = Cytotoxicity against MDCK cells by MTT assay; assay type: toxicity, cell-based, Canis lupus familiaris; details: dog
[11] = test system: Influenza A virus; assay: Antiviral activity at Influenza A virus infected in MDCK cells by plaque reduction assay; assay type: functional, cell-based
[12] = test system: Influenza B virus; assay: Antiviral activity at Influenza B virus infected in MDCK cells by plaque reduction assay; assay type: functional, cell-based
[13] = Inhibition of Influenza A virus A/PR/8/34(H1N1) 6His-tagged PA (239 to 716 residues)/GST-tagged PB1 (1 to 15 residues) interaction; parameters: species or system Influenza A virus (A/Puerto Rico/8/1934(H1N1))
[14] = Inhibition of Influenza B virus B/Lee/40 RNA-dependent-RNA polymerase transfected in MDCK cells assessed as reduction in viral growth after 24 hrs by minireplicon assay; assay type: cell-based, Influenza B virus (B/Lee/1940)
[15] = Inhibition of Influenza A virus A/WSN/1933(H1N1) PA/PB1 interaction transfected in HEK293T cells assessed as inhibition of viral growth measured after 24 hrs by minireplicon assay; assay type: cell-based; details: hek-293t
[16] = Inhibition of Influenza A virus A/PR/8/34(H1N1) RNA-dependent-RNA polymerase transfected in MDCK cells assessed as reduction in viral growth after 24 hrs by minireplicon assay; assay type: cell-based, Influenza A virus (A/Puerto Rico/8/1934(H1N1))

Compound: CCc1oc2ccccc2c1C(=O)c1cc(Br)c(O)c(Br)c1 [BENZBROMARONE]
- pKd [1]: 4.32
- pEC50 [2]: 4.41

Compound: COc1ccc(C(=O)Nc2nc3n(n2)C(c2ccccc2)C=C(C)N3)cc1 (centres undefined)
- inhibition [3]: Dose-dependent effect
- pIC50 [4]: < 4.00
- CC50 [5]: > 250 µM
- pEC50 [2]: < 4.00
- pIC50 [6]: 3.77
- inhibition [7]: Dose-dependent effect

Compound: CSCC[C@H](N)C(=O)N[C@@H](CC(=O)O)C(=O)N[C@@H](Cc1ccc(O)cc1)C(=O)N[C@@H](CC(N)=O)C(=O)N1CCC[C@H]1C(=O)N[C@@H](Cc1ccccc1)C(=O)N[C@@H](CC(C)C)C(=O)N[C@@H](CC(C)C)C(=O)N[C@@H](Cc1ccccc1)C(=O)N[C@@H](CC(C)C)C(=O)N[C@@H](CCCCN)C(=O)N[C@H](C(=O)N1CCC[C@H]1C(=O)N[C@@H](C)C(=O)N[C@@H](CCC(N)=O)C(=O)O)C(C)C
- pIC50 [8]: 8.20

Compound: CSCC[C@H](N)C(=O)N[C@@H](CC(=O)O)C(=O)N[C@H](C(=O)N[C@@H](CC(N)=O)C(=O)N1CCC[C@H]1C(=O)N[C@H](C(=O)N[C@@H](CC(C)C)C(=O)N[C@@H](CC(C)C)C(=O)N[C@@H](Cc1ccccc1)C(=O)N[C@@H](CC(C)C)C(=O)N[C@@H](CCCCN)C(=O)N[C@H](C(=O)N1CCC[C@H]1C(=O)N[C@@H](C)C(=O)N[C@@H](CCC(N)=O)C(=O)O)C(C)C)[C@@H](C)O)C(C)C
- pIC50 [9]: < 5.52

Compound: NC(=O)c1c(NC(=O)c2cnn3c(C(F)F)cc(-c4ccccc4)nc23)sc2c1CCC2
- inhibition [3]: Dose-dependent effect
- pIC50 [4]: 4.51
- CC50 [5]: > 1000 µM
- pEC50 [2]: 4.12
- pIC50 [6]: 4.60
- inhibition [7]: Dose-dependent effect

Compound: H-MDVNPYLLFLKVPAQ-OH
- pIC50 [8]: 7.66
- pIC50 [9]: 6.97

Compound: CC[C@H](C)[C@H](NC(=O)[C@@H]1CCCN1C(=O)[C@@H](NC(=O)[C@H](CCCCN)NC(=O)[C@H](CC(C)C)NC(=O)[C@H](Cc1ccccc1)NC(=O)[C@H](CC(C)C)NC(=O)[C@H](CC(C)C)NC(=O)[C@H](Cc1ccccc1)NC(=O)[C@@H]1CCCN1C(=O)[C@H](CC(N)=O)NC(=O)[C@@H](NC(=O)[C@H](CC(=O)O)NC(=O)[C@@H](N)CCSC)C(C)C)C(C)C)C(=O)N[C@@H](CCC(N)=O)C(=O)O
- pIC50 [8]: 7.66

Compound: CC(C)C[C@H](NC(=O)[C@H](Cc1ccccc1)NC(=O)[C@H](CC(C)C)NC(=O)[C@H](CC(C)C)NC(=O)[C@@H](NC(=O)[C@@H]1CCCN1)[C@@H](C)O)C(=O)N[C@@H](CCCCN)C(=O)O
- pIC50 [8]: < 5.00

Compound: O=[N+]([O-])c1ccc(Oc2ccc(-n3cc(CO)nn3)cc2)c2nonc12
- CC50 [10]: 40 µM
- pEC50 [2]: 6.00
- pIC50 [6]: 4.46

Compound: COC(=O)C1=C(N)N(c2cccc(Cl)c2C)C2=C(C(=O)CCC2)C1c1ccc2c(c1)OCO2 (centres undefined)
- inhibition [3]: Dose-dependent effect
- pIC50 [4]: 4.74
- pEC50 [11]: 4.92
- CC50 [5]: > 1000 µM
- pEC50 [2]: 4.73
- pIC50 [6]: 4.52
- inhibition [7]: Dose-dependent effect
- pEC50 [12]: 4.92

Compound: O=[N+]([O-])c1ccc(Sc2cccc(-n3ccnc3)c2)c2nonc12
- CC50 [10]: 20 µM
- pEC50 [2]: 5.00
- pIC50 [6]: 4.82

Compound: Nc1ccc(O)c2c1C(=O)c1c(N)ccc(O)c1C2=O
- pEC50 [11]: 4.89
- pIC50 [13]: 4.70
- pEC50 [14]: 5.08
- CC50 [5]: > 250 µM
- pIC50 [15]: 4.80
- pEC50 [16]: 4.85

Compound: CSCC[C@H](N)C(=O)N[C@@H](CC(=O)O)C(=O)N[C@H](C(=O)N[C@@H](CC(N)=O)C(=O)N1CCC[C@H]1C(=O)N[C@@H](Cc1ccccc1)C(=O)N[C@@H](CC(C)C)C(=O)N[C@@H](CC(C)C)C(=O)N[C@@H](Cc1ccccc1)C(=O)N[C@@H](CC(C)C)C(=O)N[C@@H](CCCCN)C(=O)N[C@H](C(=O)N[C@@H](CCCCN)C(=O)N[C@@H](C)C(=O)N[C@@H](CCC(N)=O)C(=O)O)C(C)C)C(C)C
- pIC50 [8]: 7.78

Compound: COc1ccc(CC2(CCC(=O)NC(C)Cn3ccc4ccccc43)CCC(=O)N2)cc1 (centres undefined)
- inhibition [3]: Dose-dependent effect
- pIC50 [4]: < 4.00
- CC50 [5]: > 250 µM
- pEC50 [2]: < 4.00
- pIC50 [6]: 3.70
- inhibition [7]: Dose-dependent effect

Compound: CC(=O)O[C@H]1CC[C@H]2[C@@H]3CCC4=CC(=O)CCC4=C3C=C[C@]12C [TRENBOLONE ACETATE]
- pKd [1]: 4.04
- pEC50 [2]: 4.29

Compound: N#CC(c1ccc(Cl)cc1)c1c(Cl)cc(-n2ncc(=O)[nH]c2=O)cc1Cl (centres undefined) [DICLAZURIL]
- pKd [1]: 3.68
- pEC50 [2]: 4.51

Compound: CSCC[C@H](N)C(=O)N[C@@H](CC(=O)O)C(=O)N[C@H](C(=O)N[C@@H](CC(N)=O)C(=O)N1CCC[C@H]1C(=O)N[C@@H](Cc1ccccc1)C(=O)N[C@@H](CC(C)C)C(=O)N[C@@H](CC(C)C)C(=O)N[C@@H](Cc1ccccc1)C(=O)N[C@@H](CC(C)C)C(=O)N[C@@H](CCCCN)C(=O)N[C@H](C(=O)N1CCC[C@H]1C(=O)N[C@@H](C)C(=O)N[C@@H](Cc1ccccc1)C(=O)O)C(C)C)C(C)C
- pIC50 [8]: 7.86

Compound: H-MNINPYFLFIDVPIQ-OH
- pIC50 [8]: < 5.52
- pIC50 [9]: 7.35
